The source of these data is ChEMBL document CHEMBL1154549, “Three new triterpenoids from Peganum nigellastrum” (J Nat Prod, 2000).

In this assay the target is DNA topoisomerase 2-alpha (Homo sapiens, UniProt P11388). Put plainly: Inhibition of human topoisomerase 2.

The structures appear in SMILES notation.

Sequence of DNA topoisomerase 2-alpha (P11388 whole entry): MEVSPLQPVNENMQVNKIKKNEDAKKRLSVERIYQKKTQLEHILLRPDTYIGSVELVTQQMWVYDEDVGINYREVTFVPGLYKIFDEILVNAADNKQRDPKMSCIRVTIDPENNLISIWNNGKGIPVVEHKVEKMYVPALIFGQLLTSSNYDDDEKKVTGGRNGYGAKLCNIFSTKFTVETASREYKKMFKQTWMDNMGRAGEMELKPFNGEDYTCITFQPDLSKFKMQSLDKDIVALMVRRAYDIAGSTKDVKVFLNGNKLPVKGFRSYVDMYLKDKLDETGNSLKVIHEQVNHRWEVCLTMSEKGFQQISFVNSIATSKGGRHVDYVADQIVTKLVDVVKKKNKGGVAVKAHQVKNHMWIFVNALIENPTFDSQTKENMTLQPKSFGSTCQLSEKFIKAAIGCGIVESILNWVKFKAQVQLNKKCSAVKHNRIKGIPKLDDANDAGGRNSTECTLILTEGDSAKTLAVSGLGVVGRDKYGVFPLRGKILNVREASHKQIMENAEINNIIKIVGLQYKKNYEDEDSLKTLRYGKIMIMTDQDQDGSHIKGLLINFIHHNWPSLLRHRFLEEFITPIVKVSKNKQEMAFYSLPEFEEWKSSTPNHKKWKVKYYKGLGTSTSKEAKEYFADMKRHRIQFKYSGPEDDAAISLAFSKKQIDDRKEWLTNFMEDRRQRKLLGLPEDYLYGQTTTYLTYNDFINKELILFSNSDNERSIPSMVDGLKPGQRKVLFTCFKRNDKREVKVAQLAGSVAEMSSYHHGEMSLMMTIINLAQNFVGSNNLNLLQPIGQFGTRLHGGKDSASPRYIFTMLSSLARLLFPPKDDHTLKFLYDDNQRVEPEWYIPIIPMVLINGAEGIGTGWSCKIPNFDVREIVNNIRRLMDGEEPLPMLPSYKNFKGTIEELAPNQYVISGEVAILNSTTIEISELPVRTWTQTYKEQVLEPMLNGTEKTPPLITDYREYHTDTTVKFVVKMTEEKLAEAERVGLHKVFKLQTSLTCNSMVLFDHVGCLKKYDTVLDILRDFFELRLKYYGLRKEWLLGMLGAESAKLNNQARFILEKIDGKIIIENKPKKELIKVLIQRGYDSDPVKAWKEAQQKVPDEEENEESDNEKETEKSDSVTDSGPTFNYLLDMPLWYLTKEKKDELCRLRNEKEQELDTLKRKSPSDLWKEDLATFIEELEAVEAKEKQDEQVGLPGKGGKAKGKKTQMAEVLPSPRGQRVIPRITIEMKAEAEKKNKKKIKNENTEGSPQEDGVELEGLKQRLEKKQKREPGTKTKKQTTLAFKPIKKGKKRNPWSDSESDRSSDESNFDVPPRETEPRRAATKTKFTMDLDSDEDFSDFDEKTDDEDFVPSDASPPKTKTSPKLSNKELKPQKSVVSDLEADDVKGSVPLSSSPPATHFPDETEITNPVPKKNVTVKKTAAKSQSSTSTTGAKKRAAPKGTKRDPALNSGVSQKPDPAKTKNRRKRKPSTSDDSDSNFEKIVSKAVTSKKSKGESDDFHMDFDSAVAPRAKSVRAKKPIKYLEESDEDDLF

For `C=C(C)[C@@H]1CC[C@]2(C(=O)OC)CC[C@]3(CO)[C@H](CC[C@@H]4[C@@]5(C)CC[C@@H](O)C(C)(C)[C@@H]5CC[C@]43C)[C@@H]12`, the IC50 is 8.9 µM.
`C[C@H]([C@H](C)N1CC(=O)NC(=O)C1)N1CC(=O)NC(=O)C1` [ICRF-193] came in with an IC50 of 13.9 µM.

Usually IC50 stands for the point on the concentration scale where inhibition reaches its midpoint. A high value points to weaker potency.
